Results on eleven compounds are retold here after ChEMBL document CHEMBL1201862, “PubChem BioAssay data set” (2004).

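Five compound concentrations were applied to cells in 96-well plates for 48 hours; endpoints were derived by simple linear interpolation of the resulting dose-response curve. Abbreviation: GI50, concentration required for 50% inhibition of growth.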 Calls of active or inactive are those of the source. Cut-off read from the data, not from the text of the source: active = GI50 up to about 1.1 µM and inactive = higher.

Some test systems named below: SF-539; KM12; SN12C; MCF7; UACC-62; M14; SK-OV-3; COLO 205; MDA-MB-231; SNB-19; IGROV-1; Hs-578T; A549; 786-0; SK-MEL-5; MOLT-4; LOX IMVI; T47D; OVCAR-3; NCI-H226.
Common to all, as to experiment: NCI anticancer screen, dose series, 48 h

`COc1cccc(-c2cc(O)c3cc(NC(C)=O)ccc3n2)c1`: the GI50 in the experiment with SF-539 was 14.2 µM (inactive); in the experiment with KM12, 23.5 µM (inactive); in the experiment on SN12C it was 78 µM (inactive); in the experiment with MCF7, 5.65 µM (inactive); in the experiment on UACC-62 it was 17.4 µM (inactive); with M14, 27.2 µM (inactive). Further, the GI50 is > 100 µM (inactive) with SK-OV-3; 22.4 µM (inactive) in the experiment on COLO 205; 31.4 µM (inactive) in the experiment on MDA-MB-231; 8.41 µM (inactive) in the experiment with SNB-19; 27.2 µM (inactive) in the experiment with IGROV-1; 2.63 µM (inactive) in the experiment with Hs-578T. Besides, the GI50 in the experiment on A549 was 61.7 µM (inactive); in the experiment with 786-0 it was 28.9 µM (inactive); with SK-MEL-5, 14.6 µM (inactive); in the experiment with MOLT-4, 5.27 µM (inactive); with LOX IMVI it was 22.5 µM (inactive).
For the compound `Clc1ccc(COC(Cn2ccnc2)c2ccc(Cl)cc2Cl)c(Cl)c1` (configuration not stated) [MICONAZOLE NITRATE], the GI50 in the experiment with T47D is 4.57 µM (inactive); with SF-539, 14.6 µM (inactive); with KM12 it was 13.3 µM (inactive); with SN12C it was 7.96 µM (inactive); in the experiment on MCF7, 14.7 µM (inactive); in the experiment on UACC-62 it was 10.2 µM (inactive). Besides, the GI50 in the experiment on M14 is 10.6 µM (inactive); in the experiment on SK-OV-3, 14.3 µM (inactive); in the experiment on MDA-MB-231, 11.9 µM (inactive); in the experiment on SNB-19, 15.9 µM (inactive); in the experiment on A549 it was 10.9 µM (inactive); with OVCAR-3, 9.86 µM (inactive). The figures for the GI50 in the experiment with 786-0, with MOLT-4 and in the experiment on LOX IMVI were 10.9 µM (inactive), 3.36 µM (inactive) and 9.18 µM (inactive), respectively.
In the case of `O=c1[nH]c(=O)n(C2CC(O)C(COP(=O)(O)OC3CC(n4cc(F)c(=O)[nH]c4=O)OC3COP(=O)(O)OC3CC(n4cc(F)c(=O)[nH]c4=O)OC3COP(=O)(O)OC3CC(n4cc(F)c(=O)[nH]c4=O)OC3COP(=O)(O)OC3CC(n4cc(F)c(=O)[nH]c4=O)OC3COP(=O)(O)OC3CC(n4cc(F)c(=O)[nH]c4=O)OC3COP(=O)(O)OC3CC(n4cc(F)c(=O)[nH]c4=O)OC3COP(=O)(O)OC3CC(n4cc(F)c(=O)[nH]c4=O)OC3COP(=O)(O)OC3CC(n4cc(F)c(=O)[nH]c4=O)OC3COP(=O)(O)OC3CC(n4cc(F)c(=O)[nH]c4=O)OC3CO)O2)cc1F` (configuration not stated), the GI50 was 0.0473 µM (active) in the experiment on T47D; < 0.005 µM (active) in the experiment on SF-539; 3.59 µM (inactive) in the experiment with KM12; 0.00828 µM (active) with SN12C; < 0.005 µM (active) in the experiment with MCF7; 0.194 µM (active) with NCI-H226. Also, the GI50 with UACC-62 is < 0.005 µM (active); in the experiment on M14, < 0.005 µM (active); with SK-OV-3 it was 0.226 µM (active); in the experiment with COLO 205, 0.129 µM (active); with MDA-MB-231 it was 9.33 µM (inactive); in the experiment with SNB-19, 0.169 µM (active). Besides, the GI50 in the experiment on IGROV-1 is 0.0435 µM (active); with A549, < 0.005 µM (active); in the experiment with 786-0 it was < 0.005 µM (active); with SK-MEL-5, 0.00824 µM (active); in the experiment on MOLT-4, 0.0052 µM (active); in the experiment on LOX IMVI, < 0.005 µM (active).
On to `COc1ccc(SC(C)(SC)c2ccccn2)c(OC)n1` (configuration not stated), for which the GI50 in the experiment on SF-539 is > 100 µM (inactive); in the experiment with KM12, 79.1 µM (inactive); with SN12C, > 100 µM (inactive); with MCF7 it was 60.1 µM (inactive); in the experiment with NCI-H226, 42.5 µM (inactive); in the experiment with UACC-62 it was 87.3 µM (inactive). The GI50 in the experiment on M14 is > 100 µM (inactive); with COLO 205, 31.6 µM (inactive); in the experiment on MDA-MB-231, > 100 µM (inactive); in the experiment with SNB-19, > 100 µM (inactive); in the experiment with IGROV-1, > 100 µM (inactive); with Hs-578T, 91.2 µM (inactive). Besides, the GI50 with A549 is 79.4 µM (inactive); in the experiment with OVCAR-3, 52.8 µM (inactive); in the experiment on 786-0, 66.7 µM (inactive); in the experiment on SK-MEL-5, 37.4 µM (inactive); in the experiment on MOLT-4, 3.22 µM (inactive); in the experiment on LOX IMVI, 72.1 µM (inactive).
`C1CSCCSCCCSC2CCCCC2SC1` (configuration not stated): the GI50 in the experiment with T47D, in the experiment with SF-539, in the experiment with KM12, in the experiment with SN12C, in the experiment with MCF7 and in the experiment with UACC-62 was > 100 µM (inactive) each time. The GI50 is > 100 µM (inactive) with M14; > 100 µM (inactive) with SK-OV-3; 86.3 µM (inactive) in the experiment with COLO 205; 60 µM (inactive) in the experiment on MDA-MB-231; > 100 µM (inactive) in the experiment on SNB-19; > 100 µM (inactive) in the experiment on IGROV-1. Further, the GI50 with A549 is > 100 µM (inactive); in the experiment with OVCAR-3, > 100 µM (inactive); with 786-0, > 100 µM (inactive); with SK-MEL-5, 43.2 µM (inactive); in the experiment on MOLT-4, 26 µM (inactive); in the experiment with LOX IMVI, > 100 µM (inactive).
As to `CCOC(=O)N(c1ccccc1)c1cc(=O)n2ccccc2n1`, the GI50 in the experiment with T47D, in the experiment with SF-539, with KM12, with SN12C, in the experiment with MCF7 and in the experiment on NCI-H226 was > 100 µM (inactive) throughout. Further, the GI50 in the experiment on UACC-62, in the experiment on SK-OV-3, in the experiment on COLO 205, with MDA-MB-231, in the experiment on SNB-19 and in the experiment on IGROV-1 was > 100 µM (inactive) in each case. Also, the GI50 in the experiment with A549, with OVCAR-3, in the experiment on 786-0, with SK-MEL-5, in the experiment on MOLT-4 and in the experiment with LOX IMVI was > 100 µM (inactive) in each case.
Take `CC(C)(C)c1ccccc1N1C(=O)c2ccc3c4c(ccc(c24)C1=O)N(c1ccccc1C(C)(C)C)C3=O`: the GI50 in the experiment with SF-539, with KM12, in the experiment with SN12C, in the experiment with MCF7, in the experiment with UACC-62 and in the experiment on M14 was > 100 µM (inactive) throughout. Besides, the GI50 is > 100 µM (inactive) in the experiment with SK-OV-3; > 100 µM (inactive) in the experiment on COLO 205; > 100 µM (inactive) in the experiment with MDA-MB-231; > 100 µM (inactive) with SNB-19; > 100 µM (inactive) in the experiment with IGROV-1; 3.03 µM (inactive) in the experiment on Hs-578T. Further, the GI50 was > 100 µM (inactive) with A549; > 100 µM (inactive) with OVCAR-3; > 100 µM (inactive) with 786-0; > 100 µM (inactive) in the experiment on SK-MEL-5; 5.46 µM (inactive) in the experiment with MOLT-4.
In the case of `COc1cc(NC(C)CCCN)c2nccc(C)c2c1` (configuration not stated), the GI50 in the experiment on SF-539 was 17.5 µM (inactive); in the experiment with KM12 it was 17.5 µM (inactive); with SN12C it was 31.4 µM (inactive); with MCF7 it was 16.2 µM (inactive); in the experiment with UACC-62, 19.9 µM (inactive); with M14, 18.9 µM (inactive). The GI50 in the experiment on SK-OV-3 was 28.4 µM (inactive); in the experiment on COLO 205, 14.3 µM (inactive); with MDA-MB-231, > 10 µM (inactive); with SNB-19, 27 µM (inactive); in the experiment on IGROV-1 it was 16.5 µM (inactive); with Hs-578T it was 26.8 µM (inactive). Further, the GI50 was 55.7 µM (inactive) in the experiment on A549, 23.1 µM (inactive) in the experiment with OVCAR-3, 19 µM (inactive) in the experiment with 786-0 and 25.7 µM (inactive) in the experiment with SK-MEL-5.
For the compound `Cn1c(=O)oc2cc(C(O)CN3CCN(Cc4ccccn4)CC3)c(Cl)cc21` (configuration not stated), the GI50 with T47D, with SF-539, with KM12, in the experiment with SN12C, in the experiment with MCF7 and in the experiment on NCI-H226 was > 100 µM (inactive) each time. Moreover, the GI50 in the experiment on UACC-62, in the experiment on M14, with SK-OV-3, in the experiment on COLO 205, in the experiment on MDA-MB-231 and with SNB-19 was > 100 µM (inactive) in each case. Further, the GI50 in the experiment on IGROV-1, in the experiment with A549, in the experiment on OVCAR-3, with 786-0, in the experiment with MOLT-4 and in the experiment with LOX IMVI was > 100 µM (inactive) each time.
Take `O=C(NCCC1CNc2ccccc21)OCc1ccccc1` (configuration not stated): the GI50 with KM12, in the experiment on MCF7, in the experiment on UACC-62, in the experiment with M14, in the experiment on SK-OV-3 and in the experiment on COLO 205 was > 100 µM (inactive) throughout. In addition, the GI50 in the experiment on MDA-MB-231, in the experiment on SNB-19, in the experiment with IGROV-1, with Hs-578T, in the experiment on A549 and in the experiment on OVCAR-3 was > 100 µM (inactive) throughout. Also, the values for the GI50 with 786-0, with SK-MEL-5 and in the experiment with MOLT-4 were > 100 µM (inactive), > 100 µM (inactive) and 71.4 µM (inactive), respectively.
Regarding `COc1ccc(N(C(=O)Nc2ccc(Cl)c(Cl)c2)C2c3cccn3C(=O)N2c2ccc(Cl)c(Cl)c2)cc1` (configuration not stated), the GI50 with SF-539 was > 100 µM (inactive); in the experiment with KM12, 30.5 µM (inactive); in the experiment on SN12C, > 100 µM (inactive); with MCF7 it was 43.3 µM (inactive); in the experiment with NCI-H226, > 100 µM (inactive); with UACC-62, 41.9 µM (inactive). Further, the GI50 was 19.1 µM (inactive) in the experiment with M14; > 100 µM (inactive) with COLO 205; 47.8 µM (inactive) in the experiment with MDA-MB-231; > 100 µM (inactive) in the experiment with SNB-19; > 100 µM (inactive) with IGROV-1; > 100 µM (inactive) with Hs-578T. Moreover, the GI50 in the experiment with A549 is 80.5 µM (inactive); in the experiment on 786-0, > 100 µM (inactive); in the experiment on SK-MEL-5, 70.5 µM (inactive); in the experiment on MOLT-4 it was 1.54 µM (inactive); with LOX IMVI, 15.8 µM (inactive).
